Results taken from patent US4533541A, “Tin-117m-labeled stannic (Sn^4+) chelates” (The United States of America as represented by the United …, priority 1983, dated 1985).
Where two headings read alike, the source gives them in different places.

Conditions: mouse, in vivo; for Blood, % Dose per Gram / Bone, % Dose per Gram / Kidneys, % Dose per Gram / Liver, % Dose per Gram / % Dose remaining in whole body: iv
Method: Tissue distribution studies were done in normal BNL mice. All animals were injected with the appropriate radiopharmaceutical intravenously. A number of time periods up to 7 days after injection were used to collect the data.
Comparative studies were conducted using Sn^2+ chloride (pH 2 and 7), Sn^4+ chloride (pH 2), and Sn(2+ and 4+)-labeled chelates (MDP, DTPA, EHDP, and PYP).
Tissue distribution in mice of Sn(2+ and 4+) chloride (pH 2 and 7), and of the stannous and stannic chelates of MDP, DTPA, PYP, and EHDP is shown in Table 1.

Q: With O.O.O=P([O-])([O-])CP(=O)([O-])[O-].[99Tc+4] [^99m Tc-MDP] as the compound, how does the “Ratio, bone to Blood” value (30 min) read?
A: The value was 29.

Q: What about the “Ratio, bone to Kidney” value (30 min) of the same compound?
A: The value was 8.1.

Q: What about the “Ratio, bone to Liver” value (30 min) of the same compound?
A: The value was 8.4.

Q: What about the “Ratio, bone to Muscle” value (30 min) of the same compound?
A: Its value is 93.

Q: And the “Ratio, bone to Blood” value (180 min)?
A: The value was 85.

Q: And the “Ratio, bone to Kidney” value (180 min)?
A: The value was 11.

Q: And the “Ratio, bone to Liver” value (180 min)?
A: Its value is 13.

Q: What about the “Ratio, bone to Muscle” value (180 min) of the same compound?
A: Its value is 270.

Q: And the “Ratio, bone to Blood” value (1440 min)?
A: The value was 205.

Q: And the “Ratio, bone to Kidney” value (1440 min)?
A: The value was 18.

Q: What about the “Ratio, bone to Liver” value (1440 min) of the same compound?
A: The value was 14.

Q: What about the “Ratio, bone to Muscle” value (1440 min) of the same compound?
A: Its value is 375.

Q: What about the “Blood, % Dose per Gram” value (0.5 h) of the same compound?
A: The value was 0.41 % Dose per Gram.

Q: What about the “Bone, % Dose per Gram” value (0.5 h) of the same compound?
A: Its value is 11.80 % Dose per Gram.

Q: And the “Kidneys, % Dose per Gram” value (0.5 h)?
A: The value was 1.46 % Dose per Gram.

Q: And the “Liver, % Dose per Gram” value (0.5 h)?
A: The value was 1.41 % Dose per Gram.

Q: And the “% Dose remaining in whole body” value (30 min)?
A: Its value is 33.5 % Dose.

Q: What about the “% Dose remaining in whole body” value (180 min) of the same compound?
A: The value was 30.2 % Dose.

Q: And the “Blood, % Dose per Gram” value (3 h)?
A: Its value is 0.14 % Dose per Gram.

Q: And the “Bone, % Dose per Gram” value (3 h)?
A: The value was 12.30 % Dose per Gram.

Q: And the “Kidneys, % Dose per Gram” value (3 h)?
A: Its value is 1.11 % Dose per Gram.

Q: And the “Liver, % Dose per Gram” value (3 h)?
A: The value was 0.97 % Dose per Gram.

Q: What about the “% Dose remaining in whole body” value (1440 min) of the same compound?
A: Its value is 22.5 % Dose.

Q: What about the “Blood, % Dose per Gram” value (24 h) of the same compound?
A: The value was 0.05 % Dose per Gram.

Q: And the “Bone, % Dose per Gram” value (24 h)?
A: Its value is 10.30 % Dose per Gram.

Q: What about the “Kidneys, % Dose per Gram” value (24 h) of the same compound?
A: The value was 0.57 % Dose per Gram.

Q: What about the “Liver, % Dose per Gram” value (24 h) of the same compound?
A: The value was 0.73 % Dose per Gram.
